Patent US20240262878A1, “PHOTOACTIVATABLE GASDERMIN PROTEINS” (THE BOARD OF TRUSTEES OF THE UNIVERSITY OF ILLINOIS, priority 2021, published 2024)
Entries after “also recorded” stand apart in the source; their conditions may differ.

T1: GSDMD pores (Homo sapiens, UniProt P57764)
T1 construct: His-SUMO (N, cleaved yes); made in house; host or cells: E. coli BL21
T1 sequence (P57764 1-275 limits assumed): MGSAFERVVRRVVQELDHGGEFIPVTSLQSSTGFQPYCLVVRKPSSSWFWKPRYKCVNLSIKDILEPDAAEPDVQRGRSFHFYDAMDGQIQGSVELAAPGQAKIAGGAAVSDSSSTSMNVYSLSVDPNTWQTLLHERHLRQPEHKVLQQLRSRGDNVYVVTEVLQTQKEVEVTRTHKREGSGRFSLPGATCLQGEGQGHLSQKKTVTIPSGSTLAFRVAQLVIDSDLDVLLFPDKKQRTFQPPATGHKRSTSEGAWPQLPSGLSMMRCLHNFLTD


What was measured:
GSDMD pores = biological target: T1, GSDMD pores; test: Free-standing planar lipid bilayer electrophysiology of reconstituted GSDMD pores; format: biochemical; settings: for time to observe GSDMD protein-membrane interaction, in words: lipid in bilayer compared to baseline or PIP2 bilayer; for single pore activity / pore dynamics profile: lipid in POPE/POPC bilayer
Method: Protein Purification. Plasmid encoding the full length human GSDMD with a N-terminal His-SUMO tag was transformed into E. coli BL21 strain. The cultures were grown at 37° C. until OD600 0.8, and protein expression was induced with 0.2 mM isopropyl β-D-1-thiogalactopyranoside (IPTG) overnight at 20° C. The cells were harvested by centrifugation and the pellet was resuspended in 20 mM Tris buffer, pH 7.5, 50 mM NaCl, 5 mM imidazole, 20 mM MgCl2, 10 mM KCl, 0.5 mM TCEP, 0.1 mM protease inhibitor, and DNase I. After resuspension, cells were disrupted by high-pressure and centrifuged at 30,000 g at 4° C. for 1 hour. The supernatant was incubated for 2 hours at room temperature with pre-equilibrated Ni-NTA affinity resin (Thermo Scientific) and then passed through a column for gravity flow purification. The column was washed with 20 column volumes of resuspension buffer, and the fusion protein was eluted with three column volumes of the same buffer with 250 mM imidazole. SUMO-tag cleavage was achieved by addition of ULP1 protease to the solution and subsequent dialysis overnight at 4° C. against 20 mM Tris buffer, pH 7.5, 50 mM NaCl, 0.5 mM TCEP. GSDMD was eluted from a second round of purification through pre-equilibrated Ni-NTA affinity resin. The protein was further purified by HI-TRAP® Q ion-exchange resin and a SUPERDEX® 75 gel filtration column (GE Healthcare) pre-equilibrated with 20 mM Tris buffer, pH 7.5, 50 mM NaCl, 0.5 mM TCEP. The purified protein was concentrated to 20 mg/ml and frozen at −80° C.
Free-Standing Lipid Bilayer Formation and Electrophysiology. For the lipid bilayer, a bilayer chamber with a polystyrene cuvette was used. In addition, the folding method, which is based on Langmuir-Blodgett film formation (Kroemer et al. (2009) Cell Death Differ. 16:3-11; Weavers et al. (2016) Cell 165:1658-1671) was employed. Monolayers that were spread in the air-water interface were faced at the chamber hole (Bergsbaken & Fink (2009) Nat. Rev. Microbiol. 7:99-109; Mulvihill et al. (2018) EMBO J. 37 (14): e98321). In brief, a shallow trough made of polystyrene was filled with recording solution, and the surface was separated into two parts by one of the cuvette walls. Bilayers were formed by monolayers of 1:3 1-palmitoyl-2-oleoylphosphatidylethanolamine (POPE)/1-palmitoyl-2-oleoylphosphatidylcholine (POPC) (Avanti-lipids) in pentane; where appropriate, phosphoinositides of the indicated headgroup were introduced with di-oleoyl (18:1) fatty acid chains at 10% relative concentration. A small amount of phospholipid, dispersed in pentane solution, was dropped on one of the water surfaces and as pentane evaporated, the lipid molecules remained at the air-water interface. The movements of the lipid molecules became less vigorous, and eventually the lipid molecules packed together to form a monolayer. For the formation of the planar lipid bilayer by the folding method, a monolayer was formed at the air-water interface in each compartment. Upon raising the recording solution level by adding more solution, the monolayer ran up on the cuvette surface and passed through the hole, where the two monolayers from both sides encountered each other and formed a bilayer. The membrane formed by this method has been referred to as a “solvent-free” membrane. The advantage of this method over other methods, like the painting method, is the capacity to form an asymmetrical membrane in which the lipid composition of either leaflet is arbitrarily defined (Kayagaki et al. (2015) Nature 526: 666-671). Once formed, the membrane retains this asymmetry for a long time because the flip-flop or exchange of the lipid molecules between both leaflets of the membrane is very slow.
For incorporation of the GSDMD into the lipid bilayer, 2 μM of the purified GSDMD protein was added to the cis side chamber along with 2 μM of caspase 1. The specific membrane capacitance of the membrane formed by the folding method was 0.6-0.8 μF/cm^2. […]

Hela cells = test: Optogenetic activation of PhoDer, membrane-targeted jRCaMP1b calcium flare imaging and fluctuation analysis; format: cell-based; settings: PhoDer mutants in live Hela cells vs PhoDer
Method: Cloning. Cloning and subcloning were performed using the DH5a strain of E. coli. All mammalian constructs were cloned into the pcDNA3.0 vector with a modified multiple cloning site. Plasmids were generated as follows. Gasdermin D gene was obtained from Addgene. A diffusible optogenetic GSDMD, referred to herein as “PhoDer” and set forth in SEQ ID NO: 33, was constructed according to the reported domains structure by ligating three fragments into the pcDNA3.0 vector in one reaction via Gibson Assembly (New England BioLabs). For each fragment, PCR was specifically designed to create appropriate complementation. The jRCaMP1b gene, encoding a sensitive red protein calcium indicator, was obtained from Addgene. Membrane targeted calcium indicator jRCaMP1b was constructed by ligating a PCR fragment of the calcium indicator into the restriction enzyme sites BamHI and EcoRI in a modified pcDNA3.0 vector carrying a 5′ fragment encoding the N-terminal Lyn kinase localization sequence.
Cell Culture. HeLa and RAW264.7 cells were maintained in Dulbecco's Modified Eagle Medium (DMEM) medium supplemented with 10% fetal bovine serum (FBS) and 1% penicillin and streptomycin. Cells were transfected at 50%-70% confluency using LIPOFECTAMINE® 2000 transfection reagent and incubated for 24 hours before imaging. Cells were never serum-starved. To examine endogenous inflammatory activation, RAW264.7 cells were treated with 100 ng/μL lipopolysaccharide (LPS, Invivogen) at the beginning of each experiment. Pretreatment to bias membrane composition by phosphatidylinositol 4,5-bisphosphate (PIP2) modifying enzymes was performed by incubating Hela cells in Hanks' Balanced Salt Solution (HBSS) buffer with inhibitors at 37° C. for 10 minutes to prior imaging at the following concentrations: for phosphoinositide 3-kinase (PI3K), cells were treated 10 μM wortmannin (Tocris); and for phospholipase C (PLC), cells were treated with 10 μM U73122 (Tocris). Cells were removed from the incubator and allowed to come to thermal equilibrium before being imaged in HBSS buffer at room temperature.
Fluorescence Imaging, Optogenetic Activation, and Post-Processing. All epifluorescence imaging was performed on a customized Nikon Ti2-E microscope equipped with individual control over excitation (EX) and emission (EM) filters, a fast LED light source (Lumencor) with fluid-cooled EMCCD (Andor), motorized stage, and examined under a 40× or 100× oil immersion objective under live focus tracking. For RFP, excitation (EX) and emission (EM) filter combinations (maxima/bandwidth in nm) are indicated. Cells were imaged at 12-15 second intervals. Emission intensities of individual cells were background-subtracted before normalization to zero time point, when optogenetic activation began. In the optical setup, optogenetic activation of PhoDer was performed using an EX filter at 440/20 nm for 20-30 ms across whole fields of view. This replicated the progression of endogenous activation of GSDMD observed in LPS-stimulated RAW264.7 cells. […] Where applicable, inhibitors were treated at the indicated concentration for 15 minutes prior to imaging.
Fluctuation Analysis and Quantification. To automate the objective isolation and quantitation of calcium flares, a post-processing algorithm was developed based on principles and normalization scheme detailed in work on photochromic stochastic optical fluctuation imaging (pcSOFI) (Dedecker et al. (2012) Proc. Natl. Acad. Sci. USA 109: 10909-10914). Briefly, fluctuation caused by the flares generate high autocorrelation signals in time-averaged series and yield high contrast at locales of the greatest ion flux. To truly reflect the local flux change, it is then normalized to remove dependence on the number of biosensors reporting at the given location using a scheme detailed previously (Mo et al. (2017) Nat. Methods 14 (4): 427-434). […]

[1] = lipid at 10% in POPE/POPC bilayer
[2] = lipid at 10% in POPE/POPC bilayer vs baseline

| Molecule | mean current of pores (GSDMD pores; [1]) | time to observe GSDMD protein-membrane interaction, in words (GSDMD pores) | dwell time (open duration) of pores (GSDMD pores; [2]) | single pore activity / pore dynamics profile (GSDMD pores) | pore opening/closing dynamics (automated flare quantification) (Hela cells) | also measured |
| --- | --- | --- | --- | --- | --- | --- |
| diacylglycerol [DAG] | – | – | – | no single pore activity was detected | – | – |
| cardiolipin [cardiolipin (CL)] | – | – | – | supported a pore dynamics profile similar to that of PIP2 | – | – |
| m1: PhoDer mutant K51Q/R53Q/K55Q (SEQ ID NO:34) (protein) MGSAFERVVRRVVQELDHGGEFIPVTSLQSSTGFQPYCLVVRKPSSSWFWQPQYQCVNLSIKDILEPDAAEPDVQRGRSFHFYDAMDGQIQGSVELAAPGQAKIAGGAAVSDSSSTSMNVYSLSVDPNTWQTLLHERHLRQPEHKVLQQLRSRGDNVYVVTEVLQTQKEVEVTRTHKREGSGRFSLPGATCLQGEGQGHLSQKKTVTIPSGSTLAFRVAQLVIDSDLDVLLFPDKKQRTFQPPATGHKRSTSEGAWPQLPSGLSMMRCLHNGGGSVIPDYFKQSFPEGYSWERSMTYEDGGICIATNDITMEGDSFINKIHFKGTNFPPNGPVMQKRTVGWEASTEKMYERDGVLKGDVKMKLLLKGGGHYRCDYRTTYKVKQKPVKLPDYHFVDHRIEILSHDKDYNKVKLYEHAVARNSTDSMDELYKGGSGGMVSKGEETITSVIKPDMKNKLRMEGNVNGHAFVIEGEGSGKPFEGIQTIDLEVKEGAPLPFAYDILTTAFHYGNRVFTKYPRGGGVPAEGAFTEDFQGLRAEVETISKELELLDRELCQLLLEGLEGVLRDQLALRALEEALEQGQSLGPVEPLDGPAGAVLECLVLSSGMLVPELAIPVVYLLGALTMLSETQHKLLAEALESQTLLGPLELVGSLLEQSAPWQERSTMSLPPGLLGNSWGEGAPAWVLLDECGLELGEDTPHVCWEPQAQGRMCALYASLALLSGLSQEPH | – | – | – | – | significantly reduced pore opening/closing dynamics; also recorded: significant changes in pore activity | – |
| m2: PhoDer mutant K51E/R53E/K55E (SEQ ID NO:35) (protein) MGSAFERVVRRVVQELDHGGEFIPVTSLQSSTGFQPYCLVVRKPSSSWFWEPEYECVNLSIKDILEPDAAEPDVQRGRSFHFYDAMDGQIQGSVELAAPGQAKIAGGAAVSDSSSTSMNVYSLSVDPNTWQTLLHERHLRQPEHKVLQQLRSRGDNVYVVTEVLQTQKEVEVTRTHKREGSGRFSLPGATCLQGEGQGHLSQKKTVTIPSGSTLAFRVAQLVIDSDLDVLLFPDKKQRTFQPPATGHKRSTSEGAWPQLPSGLSMMRCLHNGGGSVIPDYFKQSFPEGYSWERSMTYEDGGICIATNDITMEGDSFINKIHFKGTNFPPNGPVMQKRTVGWEASTEKMYERDGVLKGDVKMKLLLKGGGHYRCDYRTTYKVKQKPVKLPDYHFVDHRIEILSHDKDYNKVKLYEHAVARNSTDSMDELYKGGSGGMVSKGEETITSVIKPDMKNKLRMEGNVNGHAFVIEGEGSGKPFEGIQTIDLEVKEGAPLPFAYDILTTAFHYGNRVFTKYPRGGGVPAEGAFTEDFQGLRAEVETISKELELLDRELCQLLLEGLEGVLRDQLALRALEEALEQGQSLGPVEPLDGPAGAVLECLVLSSGMLVPELAIPVVYLLGALTMLSETQHKLLAEALESQTLLGPLELVGSLLEQSAPWQERSTMSLPPGLLGNSWGEGAPAWVLLDECGLELGEDTPHVCWEPQAQGRMCALYASLALLSGLSQEPH | – | – | – | – | significantly reduced pore opening/closing dynamics; also recorded: significant changes in pore activity | – |

More lines, main results first:

| mean current of pores (GSDMD pores; [1]) | time to observe GSDMD protein-membrane interaction, in words (GSDMD pores) | Molecule | dwell time (open duration) of pores (GSDMD pores; [2]) | single pore activity / pore dynamics profile (GSDMD pores) | pore opening/closing dynamics (automated flare quantification) (Hela cells) | also measured |
| --- | --- | --- | --- | --- | --- | --- |
| 20 pA | significantly shortened | phosphatidylinositol 4,5-bisphosphate [PIP2] | similarly distributed; also recorded: similar | – | – | time to observe protein-membrane interaction (GSDMD pores; [1]): 2.4 ± 0.5 min; effect on open probability of pores (GSDMD pores; [2]): did not affect the open probability; increase in open/close events (GSDMD pores; [2]): 57 fold |
| 20.5 pA | remained as rapid as with PIP2 | phosphatidylinositol triphosphate [PIP3] | significantly shorter-lived; also recorded: apparently short dwell time | kept GSDMD pores predominantly in the open state | – | time to observe GSDMD protein-membrane interaction, in words (GSDMD pores; listed as PI(3,4,5)P3 (PIP3)): significantly shortened |
